# From patent US20150368242A1, “NOVEL TETRAHYDROPYRIDOPYRIMIDINONE DERIVATIVE” (Ajinomoto Co., Inc., priority 2013, published 2015)
# Values joined by “and” are separate entries in the source; they are usually repeats but may differ in a detail not shown here. Equal entries are not always repeated. Structures can show the parent of a compound that is named as a salt. Where two headings read alike, the source gives them in different places.
# How the values were obtained:
# [1] = system: orally lipid-loaded mouse model (C57BL/6J mice); test: Test for lipid absorption inhibitory action (orally lipid-loaded mouse model); assay type: in vivo; conditions: for Lipid absorption inhibition ratio (%): plasma neutral fat AUC up to 6 hours after corn oil; for lipid absorption inhibitory action (in words): 30 mg/kg, Comparative Example 1 at 100 mg/kg
# Procedure: The lipid absorption inhibitory action of the compounds of Examples 5 and 60 and the compound of Comparative Example 1 was examined in an orally lipid-loaded mouse model. In this test, 10 to 11-week old male C57BL/6J mice (CLEA Japan, Inc.) were used. After the mice were fasted for 17 hours from the preceding day, blood was collected from the fundus, and further the mice were subjected to forced oral administration of one of the compounds or the medium (0.5% methyl cellulose). Thirty minutes after the administration, tyloxapol (500 mg/kg) was administered into the tail vein, and corn oil (200 μl) was orally administered (n=5-6). Blood was collected via the tail vein 2, 4, and 6 hours after the administration of corn oil, and plasma was obtained by centrifuging the blood. The neutral fat concentration in the plasma was measured by using Triglyceride E-Test Wako (Wako Pure Chemical Industries, Ltd.). The neutral fat concentration in the plasma before the administration of the compound was taken as the value at 0 hours, and the area under the curve (AUC) of the neutral fat concentration in the plasma up to 6 hours after the administration of corn oil was calculated. From the average value of the AUC of each administration group, the lipid absorption inhibition ratio was obtained by using the following formula.
# Lipid absorption inhibition ratio (%)=(Average value of AUC of medium administration group-Average value of AUC of compound administration group)/Average value of AUC of medium administration group×100
# [2] = biological target: T1, recombinant human MGAT2 enzyme (Homo sapiens, UniProt Q3SYC2); test: Test for human MGAT2 activity inhibitory action (14C-oleoyl CoA, recombinant enzyme microsomes); assay type: biochemical; set-up: key to Potency relative to Comparative Example 1 (higher = more potent): % inhibition = {1−(C−B)/(A−B)}×100, B = 10 μM Comparative Example 1
# T1 construct: made in house; host or cells: CHO-K1 (Jump-In CHO-K1 Kit, Life Technologies); microsomal fraction used as the enzyme solution
# Outline: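 Microsomes from CHO-K1 cells expressing human MGAT2 (0.67 μg/mL) reacted 30 min at 37 °C with 50 μM 2-monooleoyl glycerol, 50 μM oleoyl CoA, 2.2 μM 1-14C-oleoyl CoA and 8.3 μM orlistat in 50 mM Tris pH 7.4, 6 mM MgCl2, 2 mg/mL BSA, 0.3% DMSO. Heptane-extracted 14C counted; inhibition normalized between no-compound and 10 μM reference-compound controls.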
# [3] = system: C57BL/6J mice fed on high-fat diet (diet-induced obesity mouse model); test: Test for anti-obesity action in high-fat diet fed mice; assay type: in vivo; conditions: for Body Fat Weight, average value (difference from medium administration group) / Fat-Free Weight, average value (difference from medium administration group): Day 21, quantitative NMR; for Percent Body Weight Change, average value (difference from medium administration group): forced oral once per day Day 1 to Day 22, Day 23, n=8
# Source text: The anti-obesity action of the compound of Example 5 was examined in C57BL/6J mice fed on high-fat diet (Research Diets D12492). Thirteen-week old male C57BL/6J-DIO mice (CHARLES RIVER LABORATORIES JAPAN, INC.) were purchased, and fed in animal facilities under a 12-hour light/dark cycle for 13 weeks on the diet of D12492. From six days before the administration of the compound, the animals were habituated by inserting a tube for forced oral administration into the stomach once per day. One day before the administration of the compound, the mice were randomized on the basis of the body weight, and divided into groups (n=8). From Day 1 to Day 22, forced oral administration of the compound or a medium (0.5% methyl cellulose) was conducted once per day. The body weight was measured every day, and the body fat weight and the fat-free weight were measured by using a quantitative NMR apparatus (EcoMRI, Hitachi Aloka Medical, Ltd.) on Day 21.
# The percent body weight change (Day 23, Table 6), the body fat weight (Day 21, Table 7), and the fat-free weight (Day 21, Table 8) were each expressed in terms of the difference between the average value of the compound administration group and the average value of the medium administration group, and the difference between the groups was subjected to Dunnett's multiple comparison test (significance level p=0.05). Note that, in Tables 6 to 8, “n.s.” means a non-significant difference.
# [4] = 30 mg/kg, Dunnett's test versus medium group
# [5] = Table 5, relative to Comparative Example 1 measured in the same run
# T1 sequence (Q3SYC2 whole entry): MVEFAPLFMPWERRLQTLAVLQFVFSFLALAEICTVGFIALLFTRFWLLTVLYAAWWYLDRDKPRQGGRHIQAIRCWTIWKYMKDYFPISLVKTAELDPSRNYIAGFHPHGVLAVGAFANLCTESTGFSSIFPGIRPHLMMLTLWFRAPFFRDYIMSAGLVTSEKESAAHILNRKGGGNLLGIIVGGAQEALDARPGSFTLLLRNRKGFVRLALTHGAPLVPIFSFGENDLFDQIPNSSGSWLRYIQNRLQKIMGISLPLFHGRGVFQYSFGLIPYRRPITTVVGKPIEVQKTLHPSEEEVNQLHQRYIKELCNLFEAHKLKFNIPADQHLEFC
structure (smiles),measurement,setting,value
"COc1ccc(CNc2nc3c(c(=O)n2-c2ccccc2)CN(C(=O)Nc2ccc(C(F)(F)F)cc2)CC3)cc1 [Comparative Example 1, reference compound]",Lipid absorption inhibition ratio (%),"[1]; Test 1, 30 mg/kg oral",34%
same,Lipid absorption inhibition ratio (%),"[1]; Test 1, 100 mg/kg oral",44%
same,Lipid absorption inhibition ratio (%),"[1]; Test 2, 100 mg/kg oral",41%
same,IC50,"[2]; First Test (Table 3), read-out: IC50",223 nM
same,IC50,"[2]; Second Test (Table 4), read-out: IC50",303 nM
same,IC50,"[2]; Table 5, Comparative Example 1 measured alongside the Example, read-out: IC50 (nM) of Comp. Ex. 1",210 nM and 170 nM and 150 nM and 140 nM and 295 nM and 137 nM and 180 nM and 250 nM and 300 nM and 270 nM and 240 nM and 260 nM and 160 nM and 244 nM and 200 nM
"O=C(CNCCCCCOc1ccc(C(F)(F)F)cc1)N1CCc2nc(SC3CCC3)n(-c3ccccc3)c(=O)c2C1 [Example 5, 2-cyclobutylsulfanyl-3-phenyl-6-[2-[5-[4-(trifluoromethyl)phenoxy]pentylamino]acetyl]-7,8-dihydro-5H-pyrido[4,3-d]pyrimidin-4-one trifluoroacetate]",lipid absorption inhibitory action (in words),[1],not inferior to that of the compound of Comparative Example 1
same,Lipid absorption inhibition ratio (%),"[1]; Test 2, 30 mg/kg oral",45%
same,Lipid absorption inhibition ratio (%),"[1]; Test 3, 30 mg/kg oral",42%
same,vs Comp. Ex. 1,"[2]; First Test (Table 3), relative to Comparative Example 1, greater value = higher inhibitory action",349
same,IC50,"[2]; IC50 (nM), First Test (Table 3)",0.64 nM
same,"Body Fat Weight, average value (difference from medium administration group)",[3]; 10 mg/kg oral once per day,-2.22 g
same,"Fat-Free Weight, average value (difference from medium administration group)",[3]; 10 mg/kg oral once per day,-0.34 g
same,"Percent Body Weight Change, average value (difference from medium administration group)",[3]; 10 mg/kg,−4.15%
same,"Body Fat Weight, average value (difference from medium administration group)",[3]; 30 mg/kg oral once per day,-4.26 g
same,"Fat-Free Weight, average value (difference from medium administration group)",[3]; 30 mg/kg oral once per day,-0.98 g
same,"Percent Body Weight Change, average value (difference from medium administration group)",[3]; 30 mg/kg,−9.56%
same,body fat weight (in words),[3]; [4],significantly lowered
same,percent body weight change (in words),[3]; [4],significantly lowered
same,decrease of the fat-free body weight (in words),"[3]; 10 and 30 mg/kg, Dunnett's test versus medium group",did not have a statistically significant difference
"O=C(CCNCC#CCOc1ccc(C(F)(F)F)cc1)N1CCc2nc(SC3CCC3)n(-c3ccccc3)c(=O)c2C1 [Example 59, 2-cyclobutylsulfanyl-3-phenyl-6-[3-[4-[4-(trifluoromethyl)phenoxy]but-2-ynylamino]propanoyl]-7,8-dihydro-5H-pyrido[4,3-d]pyrimidin-4-one trifluoroacetate]",IC50,"[2]; Table 5, Examples 25 to 60, same method, read-out: IC50",2.2 nM
same,Potency relative to Comparative Example 1 (higher = more potent),[2]; [5],117
"O=C(CCNCC1COc2ccccc2O1)N1CCc2nc(SC3CCC3)n(-c3ccccc3)c(=O)c2C1 (centres unmarked) [Example 60, 2-cyclobutylsulfanyl-6-[3-(2,3-dihydro-1,4-benzodioxin-3-ylmethylamino)propanoyl]-3-phenyl-7,8-dihydro-5H-pyrido[4,3-d]pyrimidin-4-one trifluoroacetate]",lipid absorption inhibitory action (in words),[1],comparable to that of the compound of Example 5
same,Lipid absorption inhibition ratio (%),"[1]; Test 3, 30 mg/kg oral",42%
same,IC50,"[2]; IC50 (nM), Table 5, Examples 25 to 60, same method",1.1 nM
same,vs Comp. Ex. 1,[2]; [5],140
